# According to US20090188860A1, “Use of antimicrobials in water technology” (priority 2006, published 2009):
# System: bacteria
# Assay: bacterial presence in permeate and on membrane of a reverse osmosis module in a desalination process
# Details: cellulose acetate membranes cast with 0.5% and 2.0% by weight of the antimicrobial agent, after a one month period of operation
# Experimental: Cellulose acetate membranes were cast from a dope solution containing about 20% of a cellulose di- and -tri-acetate mixture and 0.5% and 2.0% by weight, respectively, of the antimicrobial agent of formula (3). The solvent is a mixture of dioxane and acetone (2:1; w/w).
# Further, the cellulose acetate membranes were used in a reverse osmosis module in a desalination process.
# The reverse osmosis module was tested to determine any bacterial presence in the permeate.
structure (smiles),measurement,value
"Oc1cc(Cl)ccc1Oc1ccc(Cl)cc1 [formula (3), 4,4′-dichloro-2-hydroxydiphenylether]",bacterial presence in the permeate and on the membrane,no bacteria could be found
